Measured values as given in paper PMC12057341, “In vitro pharmacokinetic/pharmacodynamic modeling of the effect of mucin on polymyxin B activity against Acinetobacter baumannii” (Antimicrobial Agents and Chemotherapy, 2025).
Where a SMILES comes first, the peptide text is derived from it. Bridges are numbered along the chain shown (N, C = ends). [ ]: non-standard residue; d: D form. The star is where a group is joined. X1 = CC[C@H](C)CCCCC(=O)*; Dab = NCC[C@H](N)C(=O)O

Tests used:
[1] = tested on: mucin from the porcine stomach; assay: PMB binding to mucin by ultracentrifugation in CAMHB with 1% mucin; type: in vitro ADME; design: Unbound conc.: unit not given here; conditions: CAMHB + 1% mucin
Protocol: Mucin from the porcine stomach was obtained from Sigma-Aldrich (Merck KGaA, Saint-Quentin Fallavier, France) and solubilized in NaCl 0.9% to obtain a solution at 20% (pH adjusted to 7). The solution was autoclaved at 110°C for 15 minutes.
PMB solutions at concentrations ranging from 0.5 to 10,000 mg/L in CAMHB with 1% mucin were incubated for 1 h at 35°C, then ultracentrifuged at ~290 000 g for 5 h at room temperature (Beckman Optima LE-80K, rotor: Beckman Coulter 70.1 Ti), according to a method previously described ([35]). Unbound PMB concentrations in the supernates were determined by LC-MS/MS (method adapted from a previous publication ([36]) and detailed in Supplemental material) and used to determine the unbound fraction (fu) of PMB. Potential PMB sedimentation ([37]) during experimentation was determined from PMB solutions prepared in mucin-free CAMHB and subjected to the same ultracentrifugation conditions as previously described, and then used to correct for unbound PMB concentrations.
The same procedure was performed with a nonautoclaved mucin solution. Experiments were done in triplicate.
The relationship between fu and PMB total concentrations was modeled according to a sigmoidal Emax function (equation 1):
(1) fu=E0+ Imax × C^ε/IC50ε+ C^ε,
where E0 represents the minimum fu, Imax the maximum increase in fu, IC50 (mg/L) corresponds to PMB total concentration needed to reach 50% of Imax, C (mg/L) to the PMB total concentration, and ε to the Hill coefficient.
Parameter estimation was performed using nonlinear regression with iteratively reweighted least squares (R, version 4.1.3 – Package: robustbase, version 0.99–0). Two sets of parameters were estimated, one for the data generated with autoclaved mucin, another for the data generated without autoclave. The two sets of parameters were compared using ANOVA testing.

[2] = tested on: Acinetobacter baumannii AB122-D12; assay: PMB MIC in CAMHB with or without 1% mucin, AB122-D12; type: cell-based
Protocol: Two clinical MDR strains of A. baumannii, isolated from a patient before (AB121-D0) and 12 days after treatment with colistin (AB122-D12), were used during this study ([32]). AB122-D12 carries a 10 amino acid insertion into the pmrB gene, known to confer PMB resistance.
PMB MICs of both A. baumannii strains were determined in commercial CAMHB (BioMérieux, Marcy-l’Etoile, France) according to the European Committee on Antimicrobial Susceptibility Testing and Clinical and Laboratory Standards Institute (CLSI) recommendations ([33], [34]). PMB MICs of the two A. baumannii isolates were also determined at least in duplicate in CAMHB supplemented with 1% of mucin.

[3] = simulated with equation 1, non-autoclaved mucin parameters, total conc. 8
[4] = simulated with equation 1, non-autoclaved mucin parameters, total conc. 10
[5] = simulated with equation 1, non-autoclaved mucin parameters, total conc. 50
[6] = simulated with equation 1, non-autoclaved mucin parameters, total conc. 100
[7] = simulated with equation 1, non-autoclaved mucin parameters, total conc. 500
[8] = simulated with equation 1, non-autoclaved mucin parameters, total conc. 1000
[9] = simulated with equation 1, non-autoclaved mucin parameters, total conc. 5000
[10] = simulated with equation 1, non-autoclaved mucin parameters, total conc. 10000
[11] = simulated with equation 1, pooled data parameters, total conc. 0.5
[12] = simulated with equation 1, pooled data parameters, total conc. 1
[13] = simulated with equation 1, pooled data parameters, total conc. 2
[14] = simulated with equation 1, pooled data parameters, total conc. 4
[15] = simulated with equation 1, pooled data parameters, total conc. 8
[16] = simulated with equation 1, pooled data parameters, total conc. 10
[17] = simulated with equation 1, pooled data parameters, total conc. 50
[18] = simulated with equation 1, pooled data parameters, total conc. 100
[19] = simulated with equation 1, pooled data parameters, total conc. 500
[20] = simulated with equation 1, pooled data parameters, total conc. 1000
[21] = simulated with equation 1, pooled data parameters, total conc. 5000
[22] = simulated with equation 1, pooled data parameters, total conc. 10000

SMILES: CC[C@H](C)CCCCC(=O)N[C@@H](CCN)C(=O)N[C@H](C(=O)N[C@@H](CCN)C(=O)N[C@H]1CCNC(=O)[C@H]([C@@H](C)O)NC(=O)[C@H](CCN)NC(=O)[C@H](CCN)NC(=O)[C@H](CC(C)C)NC(=O)[C@@H](Cc2ccccc2)NC(=O)[C@H](CCN)NC1=O)[C@@H](C)O [PMB, polymyxin B] (X1-[Dab]T[Dab][Dab][Dab][dF]L[Dab][Dab]T; lactam 4-C)
- fu (95% CI) ([1]; simulated with equation 1, non-autoclaved mucin parameters, total conc. 4): 5.7 (2.3 - 9.1) %
- Unbound conc. [1, 3]: 0.48
- fu (95% CI) [1, 3]: 5.9 (2.7 - 9.1) %
- Unbound conc. [1, 4]: 0.61
- fu (95% CI) [1, 4]: 6.1 (3.0 - 9.2) %
- Unbound conc. [1, 5]: 7.08
- fu (95% CI) [1, 5]: 14.2 (10.5 – 17.8) %
- Unbound conc. [1, 6]: 27.9
- fu (95% CI) [1, 6]: 27.9 (23.8 – 32.1) %
- Unbound conc. [1, 7]: 293
- fu (95% CI) [1, 7]: 58.6 (54.6 - 62.6) %
- Unbound conc. [1, 8]: 615
- fu (95% CI) [1, 8]: 61.5 (58.4 – 64.7) %
- Unbound conc. [1, 9]: 3130
- fu (95% CI) [1, 9]: 62.7 (58.6 – 66.7) %
- Unbound conc. [1, 10]: 6270
- fu (95% CI) [1, 10]: 62.7 (58.6 - 66.9) %
- Unbound conc. [1, 11]: 0.03
- fu (95% CI) [1, 11]: 6.1 (2.1 - 10.0) %
- Unbound conc. [1, 12]: 0.06
- fu (95% CI) [1, 12]: 6.1 (2.1 - 10.0) %
- Unbound conc. [1, 13]: 0.12
- fu (95% CI) [1, 13]: 6.1 (2.2 - 10.0) %
- Unbound conc. [1, 14]: 0.25
- fu (95% CI) [1, 14]: 6.1 (2.3 - 10.0) %
- Unbound conc. [1, 15]: 0.51
- fu (95% CI) [1, 15]: 6.4 (2.7 - 10.0) %
- Unbound conc. [1, 16]: 0.65
- fu (95% CI) [1, 16]: 6.5 (3.0 - 10.1) %
- Unbound conc. [1, 17]: 7.62
- fu (95% CI) [1, 17]: 15.2 (10.7 - 19.7) %
- Unbound conc. [1, 18]: 30.4
- fu (95% CI) [1, 18]: 30.4 (25.6 - 35.2) %
- Unbound conc. [1, 19]: 296
- fu (95% CI) [1, 19]: 59.2 (55.1 - 63.2) %
- Unbound conc. [1, 20]: 613
- fu (95% CI) [1, 20]: 61.3 (58.2 - 64.4) %
- Unbound conc. [1, 21]: 3100
- fu (95% CI) [1, 21]: 62.1 (58.4 - 65.8) %
- Unbound conc. [1, 22]: 6210
- fu (95% CI) [1, 22]: 62.1 (58.3 - 65.8) %
- MICu (corrected by fu) ([2]; CAMHB + 1% mucin, unbound MIC = MIC x fu): 628 mg/L
- MICu ratio in the presence and absence of mucin ([2]; MIC with 1% mucin corrected by fu): 20
- Fold increase of MIC in the presence of 1% mucin compared to CAMHB ([2]; total concentrations): 32 fold
